Read-outs that look alike come from different tables or passages of the source. Marks after values point to notes of the source that are not given here.
Assays:
[1] = fraction absorbed in humans, reported in the literature; cited from earlier work
in vitro = conditions: human; for Papp A→B: Caco-2, pH 7.4
Description: (§1) A method of using the medium also is part of the present invention. The following description is representative of how this would be done. Caco-2 cells (available from ATCC, Manassas, Va.) are resuspended in the HTB-10 medium and seeded on 3 μm polycarbonate 6-well Transwell® cell culture inserts (diameter 24.5 mm, Corning Costar) at a density of about 0.2×10^6 cells/cm^2. The seeding of the cells was performed on dry filters by placing 1.5 mL of the cell suspension on the apical side first, followed by addition of 2.5 mL of HTB-10 medium to the baso-lateral side.
(§2) To induce cell polarity, the volume of the medium on the apical side was decreased from 1.5 ml to 0.5 mL 48 hours post seeding, and the cells were fed primarily from the baso-lateral side. After the switch, the medium was changed every 24 hr for a total incubation period of 4 days.
(§3) The differentiation status and the monolayer integrity were monitored by measurements of transepithelial electrical resistance (TEER) and by determination of permeability of mannitol. […] The accelerated Caco-2 system was also evaluated through a validation process that was based on FDA guidelines for the Biopharmaceuticals Classification System (BCS). In that process, Caco-2 cell permeability coefficients were determined for 26 structurally diverse compounds that were then rank-ordered according to the fraction absorbed in humans. The transport studies were conducted as follows. The donor solution of the drug was placed on the apical side of a sample filter (1.5 mL) and the buffer solution (HBSS, pH 7.4) was placed on the baso-lateral side (2.5 mL). The plates were incubated at 37° C. on a shaker for 1-3 hr. Samples were collected at the designated time points and analyzed by either HPLC (uv)or radiometry (for radioactive compounds).

Caco-2 monolayer [2] = conditions: cited from earlier work
Caco-2 monolayer [3] = test: in vitro
Description: as §1, §2, §3

[4] = BCS validation set, compounds rank-ordered according to fraction absorbed in humans

Compound	% fa in humans [1]	Papp A→B (in vitro) [×10⁻⁶ cm/s]	Permeability class (Caco-2 monolayer [2]; [4])	further results
Cn1c(=O)c2[nH]cnc2n(C)c1=O [Theophylline]	96%			
COc1ccc2cc([C@H](C)C(=O)O)ccc2c1 [Naproxen]	94-100%			
C[C@]12CC[C@H]3[C@@H](CCC4=CC(=O)CC[C@@]43C)[C@@H]1CC[C@@H]2O [Testosterone]	100%			
CNC(=C[N+](=O)[O-])NCCSCc1ccc(CN(C)C)o1 [Ranitidine]	50-61%	2.2	Medium	
NC(N)=Nc1nc(CSCCC(N)=NS(N)(=O)=O)cs1 [Famotidine]	38%	1.36	Low	
PEG-900				[PM × 10^−6] cm/sec (Caco-2 monolayer [3]; Caco-2, pH 7.4): 0.7 +/− 0.1 × 10^−6 cm/sec
PEG-400				[PM × 10^−6] cm/sec (Caco-2 monolayer [3]; Caco-2, pH 7.4): 1.1 +/− 0.1 × 10^−6 cm/sec
CC(C)(C)NCC(O)c1cc(O)cc(O)c1 (stereo not drawn) [Terbutalin]	50-73%	5.54	Medium	
OC[C@@H](O)[C@@H](O)[C@H](O)[C@H](O)CO [Mannitol]	16-26%	3	Low	Papp (in vitro; Caco-2): 0.7 to 6.3 ×10⁻⁶ cm/s
NS(=O)(=O)c1cc(C(=O)O)c(NCc2ccco2)cc1Cl [Furosemide]	61%			
Cc1cc(=O)n(-c2ccccc2)n1C [Antipyrine]	97-100%			
Nc1nc2c(ncn2COCCO)c(=O)[nH]1 [Acyclovir]		3.8		
C[C@](N)(Cc1ccc(O)c(O)c1)C(=O)O [L-alpha-methyldopa]	44** %			[PM × 10^−6] cm/sec (Caco-2 monolayer [3]; human, Caco-2, pH 7.4): 5.7 +/− 0.5 × 10^−6 cm/sec; Permeability class (Caco-2 monolayer [2]; Caco-2): Low
CN(Cc1cnc2nc(N)nc(N)c2n1)c1ccc(C(=O)N[C@@H](CCC(=O)O)C(=O)O)cc1 [Methotraxate]	20-100** %		Low	[PM × 10^−6] cm/sec (Caco-2 monolayer [3]; 4-day Caco-2 in HTB-10, donor apical, HBSS pH 7.4, 37° C., 1-3 hr, donor concentration per Table 1): 4.2 +/− 0.7 × 10^−6 cm/sec
CC(C)n1c(/C=C/C(O)CC(O)CC(=O)O)c(-c2ccc(F)cc2)c2ccccc21 (stereo not drawn) [Fluvastatin]		10.8	High	
PEG-4000				[PM × 10^−6] cm/sec (Caco-2 monolayer [3]; Caco-2, pH 7.4): 0.6 +/− 0.1 × 10^−6 cm/sec
CC(C)(C)NC[C@H](O)COc1nsnc1N1CCOCC1 [Timolol]	72-75%	25.4	Medium	
CC1(C)S[C@@H]2[C@H](NC(=O)[C@H](N)c3ccc(O)cc3)C(=O)N2[C@H]1C(=O)O [Amoxicillin]	94** %	0.02	Low	
CC(C)NCC(O)COc1cccc2ccccc12 (stereo not drawn) [Propranolol]		19.3	High	
CC(C)NCC(O)COc1ccc(CC(N)=O)cc1 (stereo not drawn) [Atenolol]	50-54%			
COCCc1ccc(OCC(O)CNC(C)C)cc1 (stereo not drawn) [Metoprolol]		43.6	High	
NS(=O)(=O)c1cc2c(cc1Cl)NCNS2(=O)=O [Hydrochlorthiazide]	65-72%	6.9		
CC(C(=O)O)c1cccc(C(=O)c2ccccc2)c1 (stereo not drawn) [Ketoprofen]		48.6	High	
NC(=O)N1c2ccccc2C=Cc2ccccc21 [Carbamazepine]	100%	84.6	High	
